Experimental data reported in patent US8183239B2, “Substituted piperazines and piperidines as modulators of the neuropeptide Y2 receptor” (Janssen Pharmaceutica NV, priority 2005, dated 2012).

Target: T1, Y2 receptors (Homo sapiens, UniProt P49146)
T1 construct: endogenous in cells; host or cells: KAN-Ts cells (membranes)
T1 sequence (P49146 1-381): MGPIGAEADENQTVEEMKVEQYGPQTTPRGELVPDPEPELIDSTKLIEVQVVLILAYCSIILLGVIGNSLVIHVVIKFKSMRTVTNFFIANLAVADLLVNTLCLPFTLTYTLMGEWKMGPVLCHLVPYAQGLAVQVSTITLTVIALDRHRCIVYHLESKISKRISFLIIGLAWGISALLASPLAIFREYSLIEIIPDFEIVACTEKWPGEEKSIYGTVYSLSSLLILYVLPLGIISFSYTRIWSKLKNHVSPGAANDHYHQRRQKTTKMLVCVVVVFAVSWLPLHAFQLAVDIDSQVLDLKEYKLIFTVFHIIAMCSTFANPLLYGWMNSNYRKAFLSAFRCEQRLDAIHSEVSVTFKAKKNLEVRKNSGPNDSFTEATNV
Assay: Radioligand binding assay ([125I]PYY, KAN-Ts cell membranes)
Settings: Table 1, [125I]PYY 80 pM, average of results, read-out: IC50
Procedure, shortened: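 Membranes from KAN-Ts cells endogenously expressing Y2 incubated 1 h at rt with 80 pM [^125I]PYY ± test compound in HEPES buffer with NaCl, Ca^2+ and Mg^2+. Bound radioactivity collected by filtration; specific binding defined with […]. IC50 from sigmoidal fit, averaged over 3-8 duplicate experiments.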

IC50 [nM] | Structure (SMILES)
55 | CCN(CC)C(=O)C(c1ccccc1)C1CCN(c2ccc(NC(=O)[C@@H]3CCOC3)cc2F)CC1 (stereo partly drawn) [Example 132, (R)-Tetrahydro-furan-3-carboxylic acid {4-[4-(diethylcarbamoyl-phenyl-methyl)-piperidin-1-yl]-3-fluoro-phenyl}-amide]
60 | CCNC(=O)C(c1ccccc1)C1CCN(c2ccc(NC(=O)[C@H]3CCOC3)cc2C#N)CC1 (stereo partly drawn) [Example 133, (S)-Tetrahydro-furan-3-carboxylic acid {3-cyano-4-[4-(ethylcarbamoyl-phenyl-methyl)-piperidin-1-yl]-phenyl}-amide]
80 | CCN(CC)C(=O)C(c1ccccc1)C1CCN(c2ccc(NC(=O)Cc3cscc3C)cc2F)CC1 (stereo not shown) [Example 134, N,N-Diethyl-2-(1-{2-fluoro-4-[2-(4-methyl-thiophen-3-yl)-acetylamino]-phenyl}-piperidin-4-yl)-2-phenyl-acetamide]
60 | CCN(CC)C(=O)C(c1ccccc1)N1CCN(c2ccc(NC(=O)C3CCC3)cc2F)CC1 (stereo not shown) [Example 135, Cyclobutanecarboxylic acid {4-[4-(diethylcarbamoyl-phenyl-methyl)-piperazin-1-yl]-3-fluoro-phenyl}-amide]
70 | CCC(CC)C(=O)Nc1ccc(N2CCC(=C(C(=O)N(CC)CC)c3cccc(F)c3)CC2)c(F)c1 [Example 138, N-(4-{4-[Diethylcarbamoyl-(3-fluoro-phenyl)-methylene]-piperidin-1-yl}-3-fluoro-phenyl)-2-ethyl-butyramide]
80 | CCN(CC)C(=O)C(c1ccccc1)C1CCN(c2ccc(NC(=O)C(C)C)cc2F)CC1 (stereo not shown) [Example 140, N-{4-[4-(Diethylcarbamoyl-phenyl-methyl)-piperidin-1-yl]-3-fluoro-phenyl}-isobutyramide]
80 | CCN(CC)C(=O)C(c1ccccc1)C1CCN(c2ccc(NC(=O)c3cccnc3SC)cc2F)CC1 (stereo not shown) [Example 141, N-{4-[4-(Diethylcarbamoyl-phenyl-methyl)-piperidin-1-yl]-3-fluoro-phenyl}-2-methylsulfanyl-nicotinamide]
75 | CCNC(=O)C(c1ccccc1)C1CCN(c2c(F)cc(NC(=O)C(CC)CC)cc2F)CC1 (stereo not shown) [Example 142, 2-Ethyl-N-{4-[4-(ethylcarbamoyl-phenyl-methyl)-piperidin-1-yl]-3,5-difluoro-phenyl}-butyramide]
100 | CCN(CC)C(=O)C(c1ccccc1)C1CCN(c2ccc(NC(=O)c3ccsc3C)cc2F)CC1 (stereo not shown) [Example 144, 2-Methyl-thiophene-3-carboxylic acid {4-[4-(diethylcarbamoyl-phenyl-methyl)-piperidin-1-yl]-3-fluoro-phenyl}-amide]
100 | CCN(CC)C(=O)C(c1ccccc1)C1CCN(c2ccc(NC(=O)c3cccn3C)cc2F)CC1 (stereo not shown) [Example 145, 1-Methyl-1H-pyrrole-2-carboxylic acid {4-[4-(diethylcarbamoyl-phenyl-methyl)-piperidin-1-yl]-3-fluoro-phenyl}-amide]
115 | CCC(CC)C(=O)Nc1ccc(N2CCN(C(C(=O)OC)c3cc(F)cc(F)c3)CC2)c(F)c1 (stereo not shown) [Example 146, (3,5-Difluoro-phenyl)-{4-[4-(2-ethyl-butyrylamino)-2-fluoro-phenyl]-piperazin-1-yl}-acetic acid methyl ester]
100 | CCNC(=O)C(c1ccccc1)C1CCN(c2ccc(NC(=O)C3(C)CCCCC3)cc2C#N)CC1 (stereo not shown) [Example 147, 1-Methyl-cyclohexanecarboxylic acid {3-cyano-4-[4-(ethylcarbamoyl-phenyl-methyl)-piperidin-1-yl]-phenyl}-amide]
120 | CCNC(=O)C(c1ccccc1)C1CCN(c2ccc(NC(=O)[C@@H]3CCOC3)cc2C#N)CC1 (stereo partly drawn) [Example 148, (R)-Tetrahydro-furan-3-carboxylic acid {3-cyano-4-[4-(ethylcarbamoyl-phenyl-methyl)-piperidin-1-yl]-phenyl}-amide]
110 | CCN(CC)C(=O)C(c1ccccc1)C1CCN(c2ccc(NC(=O)c3ccccc3SC)cc2F)CC1 (stereo not shown) [Example 149, N-{4-[4-(Diethylcarbamoyl-phenyl-methyl)-piperidin-1-yl]-3-fluoro-phenyl}-2-methylsulfanyl-benzamide]

The remaining lines, values behind:

Structure (SMILES) | IC50 [nM]
CCNC(=O)C(c1ccccc1)C1CCN(c2ccc(C(=O)NC(CC)CC)cc2F)CC1 (stereo not shown) [Example 117, 4-[4-(Ethylcarbamoyl-phenyl-methyl)-piperidin-1-yl]-N-(1-ethyl-propyl)-3-fluoro-benzamide] | 10000
CC(=O)N(c1ccccc1)c1ccc(N2CCN(C(C(=O)Nc3ccc4c(c3)CCC4)c3ccccc3)CC2)cc1 (stereo not shown) [Example 118, 2-{4-[4-(Acetyl-phenyl-amino)-phenyl]-piperazin-1-yl}-N-indan-5-yl-2-phenyl-acetamide] | 3400
CCC(C)C(=O)Nc1ccc(N2CCC(C(C(=O)OC)c3ccccc3)CC2)cc1 (stereo not shown) [Example 120, {1-[4-(2-Methyl-butyrylamino)-phenyl]-piperidin-4-yl}-phenyl-acetic acid methyl ester] | 2400
CCN(CC)C(=O)C(c1ccccc1)N1CCN(c2ccc(NC(=O)[C@H]3CCOC3)cc2C#N)CC1 (stereo partly drawn) [Example 122, (S)-Tetrahydro-furan-3-carboxylic acid {3-cyano-4-[4-(diethylcarbamoyl-phenyl-methyl)-piperazin-1-yl]-phenyl}-amide] | 8
CCN(CC)C(=O)C(c1ccccc1)N1CCN(c2ccc(NC(=O)[C@@H]3CCOC3)cc2C#N)CC1 (stereo partly drawn) [Example 123, (R)-Tetrahydro-furan-3-carboxylic acid {3-cyano-4-[4-(diethylcarbamoyl-phenyl-methyl)-piperazin-1-yl]-phenyl}-amide] | 17
CCC(CC)C(=O)Nc1ccc(N2CCN(C(C(=O)N(CC)CC)c3cc(Br)ccc3F)CC2)c(F)c1 (stereo not shown) [Example 124, N-(4-{4-[(5-Bromo-2-fluoro-phenyl)-diethylcarbamoyl-methyl]-piperazin-1-yl}-3-fluoro-phenyl)-2-ethyl-butyramide] | 15
CCN(CC)C(=O)C(c1ccccc1)N1CCN(c2ccc(NC(=O)C3(c4ccccc4)CCCC3)cc2F)CC1 (stereo not shown) [Example 125, 1-Phenyl-cyclopentanecarboxylic acid {4-[4-(diethylcarbamoyl-phenyl-methyl)-piperazin-1-yl]-3-fluoro-phenyl}-amide] | 20
CCN(CC)C(=O)C(c1ccccc1)C1CCN(c2ccc(NC(=O)[C@H]3CCOC3)cc2F)CC1 (stereo partly drawn) [Example 126, (S)-Tetrahydro-furan-3-carboxylic acid {4-[4-(diethylcarbamoyl-phenyl-methyl)-piperidin-1-yl]-3-fluoro-phenyl}-amide] | 25
CCOC(=O)C(c1ccccc1)N1CCN(c2ccc(NC(=O)C(CC)CC)cc2F)CC1 (stereo not shown) [Example 127, {4-[4-(2-Ethyl-butyrylamino)-2-fluoro-phenyl]-piperazin-1-yl}-phenyl-acetic acid ethyl ester] | 20
CCN(CC)C(=O)C(c1ccccc1)N1CCN(c2ccc(NC(=O)c3ccnn3CC)cc2F)CC1 (stereo not shown) [Example 128, 2-Ethyl-2H-pyrazole-3-carboxylic acid {4-[4-(diethylcarbamoyl-phenyl-methyl)-piperazin-1-yl]-3-fluoro-phenyl}-amide] | 35
CCC(CC)C(=O)Nc1ccc(N2CCN(C(C(=O)N(CC)CC)c3cccc(OC)c3)CC2)c(F)c1 (stereo not shown) [Example 129, N-(4-{4-[Diethylcarbamoyl-(3-methoxy-phenyl)-methyl]-piperazin-1-yl}-3-fluoro-phenyl)-2-ethyl-butyramide] | 40
CCNC(=O)C(c1ccccc1)C1CCN(c2ccc(NC(=O)C3CCCC3)cc2C#N)CC1 (stereo not shown) [Example 130, Cyclopentanecarboxylic acid {3-cyano-4-[4-(ethylcarbamoyl-phenyl-methyl)-piperidin-1-yl]-phenyl}-amide] | 40
CCN(CC)C(=O)C(c1ccccc1)C1CCN(c2ccc(NC(=O)c3cccnc3C)cc2F)CC1 (stereo not shown) [Example 131, N-{4-[4-(Diethylcarbamoyl-phenyl-methyl)-piperidin-1-yl]-3-fluoro-phenyl}-2-methyl-nicotinamide] | 50
CCN(CC)C(=O)C(c1ccccc1)N1CCN(c2ccc(NC(=O)C3(C)CCCCC3)cc2F)CC1 (stereo not shown) [Example 136, 1-Methyl-cyclohexanecarboxylic acid {4-[4-(diethylcarbamoyl-phenyl-methyl)-piperazin-1-yl]-3-fluoro-phenyl}-amide] | 70
CC[C@H](C)C(=O)Nc1ccc(N2CCN(C(C(=O)N(CC)CC)c3ccccc3)CC2)c(F)c1 (stereo partly drawn) [Example 137, (S)—N-{4-[4-(Diethylcarbamoyl-phenyl-methyl)-piperazin-1-yl]-3-fluoro-phenyl}-2-methyl-butyramide] | 70
CCN(CC)C(=O)C(c1ccccc1)N1CCN(c2ccc(NC(=O)C(C)(C)c3ccc(Cl)cc3)cc2F)CC1 (stereo not shown) [Example 139, 2-(4-Chloro-phenyl)-N-{4-[4-(diethylcarbamoyl-phenyl-methyl)-piperazin-1-yl]-3-fluoro-phenyl}-isobutyramide] | 72
CCN(CC)C(=O)C(c1ccccc1)N1CCN(c2ccc(NC(=O)C3CCCC3)cc2F)CC1 (stereo not shown) [Example 143, Cyclopentanecarboxylic acid {4-[4-(diethylcarbamoyl-phenyl-methyl)-piperazin-1-yl]-3-fluoro-phenyl}-amide] | 80
